Reference: paper PMC10791743, “Selective CK1α degraders exert antiproliferative activity against a broad range of human cancer cell lines” (Nature Communications, 2024)
“And” between values parts separate entries of the source, which are not always exact repeats. Equal entries are not always repeated.

Legend:
CK1α = CK1α (Homo sapiens, UniProt P48729+Q96SW2); assay: CK1α HiBiT live-cell kinetic degradation assay (HEK293 cells); assay type: cell-based; set-up: engineered by CRISPR/Cas9 to express endogenous CK1α (HEK293 cells) with a HiBiT tag; conditions: for CK1a Percent Maximum Degradation: listed as SJ10040
Sequence of CK1α (P48729 whole entry): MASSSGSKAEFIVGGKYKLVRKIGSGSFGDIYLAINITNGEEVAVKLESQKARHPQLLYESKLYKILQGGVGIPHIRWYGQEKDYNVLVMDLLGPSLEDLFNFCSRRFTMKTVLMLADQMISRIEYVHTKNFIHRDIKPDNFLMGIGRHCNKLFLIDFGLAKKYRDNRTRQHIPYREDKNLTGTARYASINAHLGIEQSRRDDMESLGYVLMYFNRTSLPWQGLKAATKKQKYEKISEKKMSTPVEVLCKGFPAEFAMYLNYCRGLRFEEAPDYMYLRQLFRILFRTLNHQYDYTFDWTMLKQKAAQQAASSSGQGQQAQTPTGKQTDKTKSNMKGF
Sequence of CK1α (Q96SW2 whole entry): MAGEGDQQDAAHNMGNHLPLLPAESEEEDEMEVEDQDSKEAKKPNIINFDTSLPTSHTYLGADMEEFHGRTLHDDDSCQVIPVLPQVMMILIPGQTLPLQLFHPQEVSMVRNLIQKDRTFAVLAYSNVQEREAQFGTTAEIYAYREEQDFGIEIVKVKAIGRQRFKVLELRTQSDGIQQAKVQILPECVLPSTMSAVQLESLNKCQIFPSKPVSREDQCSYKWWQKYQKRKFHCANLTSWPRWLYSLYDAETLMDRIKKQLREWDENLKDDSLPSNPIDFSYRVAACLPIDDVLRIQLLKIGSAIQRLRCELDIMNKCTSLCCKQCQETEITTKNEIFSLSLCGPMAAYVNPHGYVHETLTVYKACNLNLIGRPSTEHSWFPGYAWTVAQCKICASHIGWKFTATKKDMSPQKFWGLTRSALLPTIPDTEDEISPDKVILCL
Sequence of CK1α (Q16531 whole entry partner): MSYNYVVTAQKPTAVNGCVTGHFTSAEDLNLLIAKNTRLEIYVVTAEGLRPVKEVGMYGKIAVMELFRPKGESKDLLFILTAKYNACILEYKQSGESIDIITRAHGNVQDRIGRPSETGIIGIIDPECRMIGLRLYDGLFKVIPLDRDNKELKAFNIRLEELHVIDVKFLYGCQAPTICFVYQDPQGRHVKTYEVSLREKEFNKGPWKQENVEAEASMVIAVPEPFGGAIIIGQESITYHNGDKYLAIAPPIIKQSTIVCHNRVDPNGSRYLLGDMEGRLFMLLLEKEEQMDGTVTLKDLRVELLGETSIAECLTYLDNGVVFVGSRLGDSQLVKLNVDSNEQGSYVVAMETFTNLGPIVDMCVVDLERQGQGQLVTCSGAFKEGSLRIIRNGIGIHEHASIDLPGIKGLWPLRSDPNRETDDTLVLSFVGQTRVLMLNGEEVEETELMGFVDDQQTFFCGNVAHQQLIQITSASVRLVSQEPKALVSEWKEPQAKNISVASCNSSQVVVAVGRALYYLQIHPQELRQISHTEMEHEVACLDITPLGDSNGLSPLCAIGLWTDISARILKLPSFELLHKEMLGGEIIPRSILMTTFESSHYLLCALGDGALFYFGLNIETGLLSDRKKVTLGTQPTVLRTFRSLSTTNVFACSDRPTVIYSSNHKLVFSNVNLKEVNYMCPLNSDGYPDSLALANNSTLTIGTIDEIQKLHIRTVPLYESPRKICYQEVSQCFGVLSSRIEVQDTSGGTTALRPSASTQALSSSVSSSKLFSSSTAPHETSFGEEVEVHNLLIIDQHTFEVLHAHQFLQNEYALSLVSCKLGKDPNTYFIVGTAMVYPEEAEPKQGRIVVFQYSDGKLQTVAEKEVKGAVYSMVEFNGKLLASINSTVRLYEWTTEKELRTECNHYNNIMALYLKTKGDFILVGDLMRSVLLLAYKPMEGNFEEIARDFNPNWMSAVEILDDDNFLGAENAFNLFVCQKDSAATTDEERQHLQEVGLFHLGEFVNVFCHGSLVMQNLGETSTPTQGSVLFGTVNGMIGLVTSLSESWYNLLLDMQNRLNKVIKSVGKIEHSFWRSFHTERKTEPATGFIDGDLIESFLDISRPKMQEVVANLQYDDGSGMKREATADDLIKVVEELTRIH
Text: To measure cellular protein levels, we used cell lines that have been engineered by CRISPR/Cas9 to express endogenous CK1α (HEK293 cells) or IKZF1 (Jurkat cells) with a HiBiT tag, which when coupled with LgBiT expression forms NanoBiT, a bioluminescent protein that can be used for kinetic studies of protein degradation. […] Cell viability was also monitored with CellTiter Glo 2.0 (Promega) at the completion of the experiment to ensure that loss of protein was not a consequence of a loss of cell viability.
IKZF1-HiBiT Jurkat LgBiT stable cells were seeded at 60,000 cells/well in 50% growth media/50% CO2 independent medium supplemented with 10% FBS and 1× Endurazine substrate. […] A dose–response curve was generated by performing 3-fold dilutions of each compound including a DMSO-only control in growth media. For live cell kinetic degradation assays, diluted compounds were added to CK1α and β-catenin plates and placed in a GloMax Discover (Promega, Cat. #GM3000) preheated to 37 °C or added to IKZF1 plates and placed in a CLARIOstar Plus (BMG LABTECH) preheated to 37 °C.
Relative protein level was determined based on normalization to the DMSO control and reported at Fractional RLUs. Degradation rate and degradation maximums were calculated from Fractional RLUs as previously described[38] using GraphPad Prism software. β-catenin stabilization time of onset for each concentration curve was calculated in GraphPad Prism by fitting an unconstrained plateau followed by one phase association model using the equation below (Y = IF(X < X0, Y0,Y0+(Plateau−Y0)*(1−exp(−K*(X−X0))))). The parameter, X0 was used as time of onset for each compound concentration.

CRBN−/− MOLM-13 cells = assay: Wild type versus CRBN−/− MOLM-13 cells (viability, CRBN dependence); assay type: cell-based, human; set-up: key to cell viability, dose-response replicate values: % viability = 100 − % activity (RLU normalized to negative control); conditions: for cell viability, dose-response replicate values: MOLM-13 CRBN KO
Text: Having identified SJ7095 as a compound with a potent antiproliferative effect in MOLM-13 cells, we next examined whether the observed effect was CRBN-dependent. […] In an orthogonal approach, we tested SJ7095 in wild-type and CRBN-knockout MOLM-13 cells in a cell viability assay (Supplementary Fig. 1b).
CRBN^−/− MOLM-13 cells were created using CRISPR-Cas9 technology. Briefly, 1 million MOLM-13 cells were transiently transfected with precomplexed ribonuclear proteins (RNPs) consisting of 400 pmol of chemically modified sgRNA (Synthego), 135pmol of SpCas9 protein (St. Jude Protein Production Core), and 500 ng of pMaxGFP (Lonza) via nucleofection (Lonza, 4D-Nucleofector™ X-unit) using solution SF and program EO100 in a 100 µl cuvette according to the manufacturer’s recommended protocol. Transfected cells (GFP+) were single-cell sorted by flow cytometry (St. Jude Flow Cytometry and Cell Sorting Shared Resource) into 96-well tissue culture-treated plates 5 days post nucleofection. Cells were clonally expanded and screened for the desired targeted modification (out-of-frame indels) via targeted deep sequencing using gene-specific primers with partial Illumina adapter overhangs as previously described. Genotyping of clones was performed using CRIS.py[59]. Knockout clones were identified as clones containing only out-of-frame indels. PowerPlex® Fusion System (Promega) was used to confirm final clone identification (Hartwell Center for Biotechnology at St. Jude). All clones tested negative for mycoplasma by the MycoAlert^TMPlus Mycoplasma Detection Kit (Lonza). CRBN knockout confirmed by immunoblot (Supplementary Material).
MOLM-13 cells were plated in Corning 8804BC white 384-well assay plates at the appropriate cell number per well and incubated overnight at 37 °C in a humidified 5 % CO2 incubator. Compounds were transferred to the assay plate from a dose-response plate using a Labcyte Echo 650 Acoustic Liquid Handler (Beckman Coulter , USA). Cytotoxicity was determined following 72 h of incubation using Promega’s CellTiter-Glo reagent according to the manufacturer’s recommendation.
Luminescence was measured on the Envision plate reader (PerkinElmer, USA). Raw luminescence relative light unit (RLU) values for each compound at each concentration were normalized to obtain % activity using the following equation (1): 100 × [(mean(negctrl) – compound)/(mean (negctrl) – mean (posctrl))]. The % activity was converted to % viability using the following equation (2):
(100 – % activity), and then pooled from replicate experiments prior to fitting. Here, negctrl and posctrl refer to the negative (DMSO) and positive controls (staurosporine) on each plate. Dose-response curves were fit to the Hill equation using the GraphPad Prism (version 10). […]

Cc1cccc(C(=O)Nc2ccc3c(c2)CN(C2CCC(=O)NC2=O)C3=O)c1 (stereo not shown) [SJ0040]
CK1a Degradation Rate Constant (CK1α; 0.111 uM): 1.349 λ/hour
CK1a Percent Maximum Degradation (CK1α; 0.111 uM): 87.09% and 81.49% and 82.97%
CK1a Degradation Rate Constant (CK1α; 0.333 uM): 1.489 λ/hour
CK1a Percent Maximum Degradation (CK1α; 0.333 uM): 81.30% and 83.99% and 85.23%
CK1a Degradation Rate Constant (CK1α; 1 uM): 1.645 λ/hour
CK1a Percent Maximum Degradation (CK1α; 1 uM): 85.32% and 82.59% and 87.28%
CK1a Degradation Rate Constant (CK1α; 3 uM): 1.768 λ/hour
CK1a Percent Maximum Degradation (CK1α; 3 uM): 84.24% and 83.34% and 82.73%
CK1a Degradation Rate Constant (CK1α; 10 uM): 1.807 λ/hour
CK1a Percent Maximum Degradation (CK1α; 10 uM, replicates): 89.47% and 88.18% and 86.50%
Dmax at 0.111 µM (CK1α; CK1, 0.111 uM, read-out: CK1a Percent Maximum Degradation): 85.1%
Dmax at 0.333 µM (CK1α; CK1, 0.333 uM, read-out: CK1a Percent Maximum Degradation): 88.2%
Dmax at 1 µM (CK1α; CK1, 1 uM, read-out: CK1a Percent Maximum Degradation): 87.9%
Dmax at 3 µM (CK1α; CK1, 3 uM, read-out: CK1a Percent Maximum Degradation): 87.3%
Dmax at 10 µM (CK1α; CK1, 10 uM, replicates, read-out: CK1a Percent Maximum Degradation): 89%
CK1α degradation depth (HiBiT) (CK1α; HEK293): near-complete degradation
DC50 (CK1α; HEK293, at 4 h): 10 nM
viability at 0.00126002 µM (CRBN−/− MOLM-13 cells; Homo sapiens, MOLM-13, MOLM-13 CRBN KO, Conc 0.00126002 uM, read-out: cell viability, dose-response replicate values): 97.2%
viability at 0.0113402 µM (CRBN−/− MOLM-13 cells; Homo sapiens, MOLM-13, MOLM-13 CRBN KO, Conc 0.0113402 uM, read-out: cell viability, dose-response replicate values): 96.7%
viability at 0.0340206 µM (CRBN−/− MOLM-13 cells; Homo sapiens, MOLM-13, MOLM-13 CRBN KO, Conc 0.0340206 uM, read-out: cell viability, dose-response replicate values): 93.1%
viability at 0.102062 µM (CRBN−/− MOLM-13 cells; Homo sapiens, MOLM-13, MOLM-13 CRBN KO, Conc 0.102062 uM, read-out: cell viability, dose-response replicate values): 89.2%
viability at 0.306185 µM (CRBN−/− MOLM-13 cells; Homo sapiens, MOLM-13, MOLM-13 CRBN KO, Conc 0.306185 uM, read-out: cell viability, dose-response replicate values): 88.4%
viability at 0.918556 µM (CRBN−/− MOLM-13 cells; Homo sapiens, MOLM-13, MOLM-13 CRBN KO, Conc 0.918556 uM, read-out: cell viability, dose-response replicate values): 97.5%
viability at 2.75567 µM (CRBN−/− MOLM-13 cells; Homo sapiens, MOLM-13, MOLM-13 CRBN KO, Conc 2.75567 uM, read-out: cell viability, dose-response replicate values): 84.5%
viability at 8.267 µM (CRBN−/− MOLM-13 cells; Homo sapiens, MOLM-13, MOLM-13 CRBN KO, Conc 8.267 uM, read-out: cell viability, dose-response replicate values): 48.7%
cell viability, dose-response replicate values (CRBN−/− MOLM-13 cells; Conc 0.00126002 uM): 101.892 and 99.1853
cell viability, dose-response replicate values (CRBN−/− MOLM-13 cells; Conc 0.00378006 uM): 77.9399 and 92.8153 and 102.961
cell viability, dose-response replicate values (CRBN−/− MOLM-13 cells; Conc 0.0113402 uM): 90.8518 and 98.3247
cell viability, dose-response replicate values (CRBN−/− MOLM-13 cells; Conc 0.0340206 uM): 99.2582 and 100.85
cell viability, dose-response replicate values (CRBN−/− MOLM-13 cells; Conc 0.102062 uM): 95.1601 and 101.209
cell viability, dose-response replicate values (CRBN−/− MOLM-13 cells; Conc 0.306185 uM): 92.1664 and 101.967
cell viability, dose-response replicate values (CRBN−/− MOLM-13 cells; Conc 0.918556 uM): 93.1747 and 96.6395
cell viability, dose-response replicate values (CRBN−/− MOLM-13 cells; Conc 2.75567 uM): 84.7802 and 96.7661
cell viability, dose-response replicate values (CRBN−/− MOLM-13 cells; Conc 8.267 uM): 53.0309 and 66.5957
